# Values of other authors in patent US20080241290A1, “Sinus relief composition and method of producing the same” (priority 2007, published 2008).
# Conditions: pure capsaicinoid, Scoville scale
structure (smiles),measurement,value
COc1cc(CNC(=O)CCCC/C=C/C(C)C)ccc1O [capsaicin],pungency (Scoville heat units),"15,000,000-16,000,000 Scoville units"
